Results on four molecules are retold here after ChEMBL document CHEMBL1158595, “2' biaryl amides as novel and subtype selective M1 agonists. Part II: Further optimization and profiling” (Bioorg Med Chem Lett, 2010).

Calls of active or inactive are those of the source.

For data set [1], the target named is T1, Muscarinic acetylcholine receptor M5 (Homo sapiens, UniProt P08912).
T1 sequence (P08912 whole entry): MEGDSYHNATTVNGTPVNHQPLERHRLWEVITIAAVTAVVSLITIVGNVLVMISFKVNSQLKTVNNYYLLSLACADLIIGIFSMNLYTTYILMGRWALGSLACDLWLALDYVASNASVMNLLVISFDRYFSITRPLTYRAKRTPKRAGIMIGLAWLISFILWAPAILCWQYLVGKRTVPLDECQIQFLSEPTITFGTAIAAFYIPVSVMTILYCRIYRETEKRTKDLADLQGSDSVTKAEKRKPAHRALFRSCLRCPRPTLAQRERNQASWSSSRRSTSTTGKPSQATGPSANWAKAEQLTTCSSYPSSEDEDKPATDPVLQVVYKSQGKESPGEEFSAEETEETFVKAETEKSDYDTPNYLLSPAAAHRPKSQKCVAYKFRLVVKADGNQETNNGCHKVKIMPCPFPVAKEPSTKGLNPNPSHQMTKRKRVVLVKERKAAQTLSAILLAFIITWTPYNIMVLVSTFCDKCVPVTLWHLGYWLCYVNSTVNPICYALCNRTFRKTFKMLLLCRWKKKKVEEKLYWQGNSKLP
Kind of data set: Inhibition of human muscarinic M5 receptor expressed in CHO cells. Type of data set: cell-based.

Data set [2] relates to Rattus norvegicus. Description: AUC in rat at 3 mg/kg, po. Type of data set: ADME, organism-based, Plasma. Details: dose 3 mg/kg, route oral. The settings on record: in vivo.
For data set [3], the target named is T2, Muscarinic acetylcholine receptor M1 (Homo sapiens) (UniProt P11229).
T2 sequence (whole entry): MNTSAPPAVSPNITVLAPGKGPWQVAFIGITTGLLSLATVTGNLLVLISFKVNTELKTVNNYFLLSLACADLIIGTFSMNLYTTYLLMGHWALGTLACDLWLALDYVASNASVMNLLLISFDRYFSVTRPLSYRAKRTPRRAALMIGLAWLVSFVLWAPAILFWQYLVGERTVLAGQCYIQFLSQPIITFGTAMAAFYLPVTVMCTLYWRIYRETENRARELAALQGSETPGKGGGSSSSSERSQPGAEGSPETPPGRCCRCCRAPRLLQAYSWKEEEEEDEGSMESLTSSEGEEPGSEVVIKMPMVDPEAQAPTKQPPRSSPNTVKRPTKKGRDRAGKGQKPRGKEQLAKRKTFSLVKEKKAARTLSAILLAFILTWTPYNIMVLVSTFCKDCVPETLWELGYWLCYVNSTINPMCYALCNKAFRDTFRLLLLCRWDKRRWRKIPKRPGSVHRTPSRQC
Kind of data set: Intrinsic activity at human muscarinic M1 receptor expressed in CHO cells assessed as effect on acetylcholine-induced intracellular calcium level by FLIPR assay relative to acetylcholine. Type of data set: functional, cell-based. For orientation: Calcium assays in cells follow changes in intracellular calcium, usually with a dye or a luminescent sensor.

For data set [4], the target named is T3, Muscarinic acetylcholine receptor M2 (Homo sapiens, UniProt P08172).
T3 sequence (P08172 whole entry): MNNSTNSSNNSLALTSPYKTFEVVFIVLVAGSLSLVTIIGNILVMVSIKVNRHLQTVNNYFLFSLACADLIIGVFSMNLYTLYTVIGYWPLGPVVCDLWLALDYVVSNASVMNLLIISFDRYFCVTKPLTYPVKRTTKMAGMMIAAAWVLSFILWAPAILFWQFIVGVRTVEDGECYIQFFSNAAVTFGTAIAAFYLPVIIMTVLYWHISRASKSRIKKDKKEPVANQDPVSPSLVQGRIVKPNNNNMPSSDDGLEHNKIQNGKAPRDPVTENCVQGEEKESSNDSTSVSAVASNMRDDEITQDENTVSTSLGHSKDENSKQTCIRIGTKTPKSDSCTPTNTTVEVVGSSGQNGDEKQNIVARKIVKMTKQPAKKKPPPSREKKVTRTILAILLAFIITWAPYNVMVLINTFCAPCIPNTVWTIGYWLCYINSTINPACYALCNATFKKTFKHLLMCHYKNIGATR
Description: Inhibition of human muscarinic M2 receptor expressed in CHO cells. Type of data set: cell-based.

Data set [5] can be described thus: Ratio of drug level in brain to blood in rat at 3 mg/kg, po. Type of data set: ADME, organism-based. Details: dose 3 mg/kg, route oral.
Data set [6] deals with T4, Muscarinic acetylcholine receptor M1 (Homo sapiens, UniProt P11229).
T4 sequence (P11229 whole entry): T2 sequence (whole entry)
Description: Agonist activity at human muscarinic M1 receptor expressed in CHO cells assessed as effect on acetylcholine-induced intracellular calcium level by FLIPR assay. Type of data set: functional, cell-based.

A short description of data set [7]: Half life in rat at 3 mg/kg, po. Type of data set: ADME, organism-based. Details: dose 3 mg/kg, route oral. The settings on record: in vivo.
The target of data set [8] is T5, Muscarinic acetylcholine receptor M4 (Homo sapiens, UniProt P08173).
T5 sequence (P08173 whole entry): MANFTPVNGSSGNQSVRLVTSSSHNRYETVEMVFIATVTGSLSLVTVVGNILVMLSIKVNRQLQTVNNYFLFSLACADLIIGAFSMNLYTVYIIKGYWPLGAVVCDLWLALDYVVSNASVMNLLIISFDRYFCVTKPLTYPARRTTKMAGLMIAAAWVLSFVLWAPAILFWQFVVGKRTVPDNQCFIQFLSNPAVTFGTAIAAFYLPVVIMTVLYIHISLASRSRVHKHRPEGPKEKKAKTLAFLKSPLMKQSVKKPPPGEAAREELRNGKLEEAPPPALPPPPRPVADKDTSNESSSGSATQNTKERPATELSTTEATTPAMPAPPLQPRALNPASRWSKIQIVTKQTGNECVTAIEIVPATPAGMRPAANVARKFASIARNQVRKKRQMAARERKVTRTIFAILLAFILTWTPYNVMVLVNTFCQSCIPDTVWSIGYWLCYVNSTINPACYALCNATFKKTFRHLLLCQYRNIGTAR
Description: Inhibition of human muscarinic M4 receptor expressed in CHO cells. Type of data set: cell-based.

Data set [9] deals with T6, Muscarinic acetylcholine receptor M3 (Homo sapiens, UniProt P20309). Description: Inhibition of human muscarinic M3 receptor expressed in CHO cells. Type of data set: cell-based.
Target sequence in this assay (P20309 whole entry): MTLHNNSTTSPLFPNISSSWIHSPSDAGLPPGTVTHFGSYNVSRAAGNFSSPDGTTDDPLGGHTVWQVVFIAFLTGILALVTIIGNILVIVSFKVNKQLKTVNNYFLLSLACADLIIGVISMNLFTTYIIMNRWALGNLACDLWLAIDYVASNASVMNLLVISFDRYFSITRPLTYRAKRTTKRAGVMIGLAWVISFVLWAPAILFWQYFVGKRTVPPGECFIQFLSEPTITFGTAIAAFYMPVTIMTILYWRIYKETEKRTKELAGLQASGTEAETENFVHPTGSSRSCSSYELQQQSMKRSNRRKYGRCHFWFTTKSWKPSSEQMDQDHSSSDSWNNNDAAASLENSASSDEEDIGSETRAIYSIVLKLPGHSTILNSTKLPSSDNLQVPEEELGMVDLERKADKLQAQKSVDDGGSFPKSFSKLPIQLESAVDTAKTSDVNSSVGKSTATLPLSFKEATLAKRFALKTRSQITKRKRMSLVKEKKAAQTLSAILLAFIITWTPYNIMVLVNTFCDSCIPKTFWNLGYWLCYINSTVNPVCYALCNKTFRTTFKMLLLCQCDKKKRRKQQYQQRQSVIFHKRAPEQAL
Data set [10] deals with Muscarinic acetylcholine receptor M1 and M3 (Homo sapiens) (UniProt P20309+P11229). Kind of data set: Selectivity ratio of human muscarinic M3 receptor to human muscarinic M1 receptor.
Sequence of Muscarinic acetylcholine receptor M1 and M3 (Homo sapiens) (P20309 whole entry, looked up, one chain of several): as the sequence (P20309 whole entry) above
The species named for data set [11] is Homo sapiens. Description: Selectivity ratio of human muscarinic M4 receptor to human muscarinic M1 receptor.
The species entered for data set [12] is Homo sapiens. Kind of data set: Selectivity ratio of human muscarinic M5 receptor to human muscarinic M1 receptor.
Data set [13] addresses Muscarinic acetylcholine receptors; M1 & M2 (Homo sapiens) (UniProt P11229+P08172). Kind of data set: Selectivity ratio of human muscarinic M2 receptor to human muscarinic M1 receptor.
Data set [14] has as its target T7, Muscarinic acetylcholine receptor M4 (Homo sapiens) (UniProt P08173).
T7 sequence (whole entry): T5 sequence (P08173 whole entry)
Kind of data set: Agonist activity at human muscarinic M4 receptor expressed in CHO cells assessed as effect on acetylcholine-induced intracellular calcium level by FLIPR assay. Type of data set: functional, cell-based.

Data set [15] has as its target T6, Muscarinic acetylcholine receptor M3. Description: Agonist activity at human muscarinic M3 receptor expressed in CHO cells assessed as effect on acetylcholine-induced intracellular calcium level by FLIPR assay. Type of data set: functional, cell-based.
Target sequence in this assay (P20309 whole entry, looked up): as the sequence (P20309 whole entry) above
Data set [16] in a line: Half life in rat at 10 mg/kg, sc. Type of data set: ADME, organism-based. Further details: dose 10 mg/kg, route subcutaneous. The settings on record: in vivo.
Data set [17] deals with T8, Muscarinic acetylcholine receptor M2 (Homo sapiens) (UniProt P08172).
T8 sequence (whole entry): T3 sequence (P08172 whole entry)
Description: Agonist activity at human muscarinic M2 receptor expressed in CHO cells assessed as effect on acetylcholine-induced intracellular calcium level by FLIPR assay. Type of data set: functional, cell-based.

Data set [18] has as its system Rattus norvegicus. Description: AUC in rat at 10 mg/kg, sc. Type of data set: ADME, organism-based, Plasma. Details: dose 10 mg/kg, route subcutaneous. The settings on record: in vivo.
Data set [19] in a line: Ratio of drug level in brain to blood in rat at 10 mg/kg, sc. Type of data set: ADME, organism-based. Further details: dose 10 mg/kg, route subcutaneous.
For data set [20], the target named is T9, Muscarinic acetylcholine receptor M5 (Homo sapiens) (UniProt P08912).
T9 sequence (whole entry): T1 sequence (P08912 whole entry)
Description: Agonist activity at human muscarinic M5 receptor expressed in CHO cells assessed as effect on acetylcholine-induced intracellular calcium level by FLIPR assay. Type of data set: functional, cell-based.

In general, IC50 refers to the concentration needed to halve the response being measured. As a reminder, the Kp is the ratio of the level in a tissue or fluid to that in plasma or blood. One may read the EC50 as the concentration needed to bring the measured effect to its halfway point. By half-life is commonly meant the time needed for the level to fall by half in the phase considered. A low value points to rapid decline. In the case of `C[C@H]1CNCC[C@]1(F)CNC(=O)c1c(F)cccc1-c1cccc(Cl)c1`, the IC50 in [1] is 6.31 µM; in [4], 2.51 µM; in data set [8], 3.16 µM; in [9], 5.01 µM. Moreover, the AUC with Rattus norvegicus [2] is 2221 ng·h/g. Further, the Intrinsic activity in data set [3] was found to be 85%. Moreover, the Kp in data set [5] is 0.3. Besides, the EC50 in data set [6] is 0.01 µM. The same molecule had a half-life in data set [7] of 3 h.
With `O=C(NCC1=CCNCC1)c1c(F)cccc1-c1cccc(Cl)c1`, the IC50 is 1.58 µM in data set [1], 1.26 µM in [4], 7.94 µM in [8] and 3.16 µM in data set [9]. Moreover, the Intrinsic activity in data set [3] is 91%. Further, the EC50 in data set [6] was 0.00316 µM.
For `O=C(NCC1CCNCC1)c1ccccc1-c1nc(Cl)cs1`, the EC50 in data set [1] was greater than 10 µM; in data set [4] it was greater than 10 µM; in data set [6], 0.251 µM; in [8] it was greater than 10 µM; in data set [9] it was greater than 10 µM. Also, the Ratio (in data set [10]; in the data set listed under Homo sapiens [11]; in the data set listed under Homo sapiens [12]; in [13]) was 100 each time.
As for `C[C@H]1CNCC[C@@H]1CNC(=O)c1c(F)cccc1-c1cccc(Cl)c1` (relative stereo), the IC50 in [1] is 0.501 µM; in data set [4] it was 0.2 µM; in [8] it was 0.158 µM; in [9] it was 0.0398 µM. In addition, the result in data set [14], in data set [15], in data set [17] and in [20] was inactive. Also, the Intrinsic activity in data set [3] is 116%. The half-life in data set [16] is 2.3 h. In addition, in the data set on Rattus norvegicus [18], the AUC is 1655 ng·h/g. Further, the Kp in [19] was 0.9. In addition, the EC50 in [6] was 0.000794 µM.
